Assay results from ChEMBL document CHEMBL1201862, “PubChem BioAssay data set” (2004).
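Dose response: 5 concentrations. Exposure: 48 h. Format: 96-well plates. Endpoint: linear interpolation; highest concentration if not reached. GI50 is the concentration that inhibits growth by half.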 Calls of active or inactive are those of the source. Cut-off read from the data, not from the text of the source: active = GI50 up to about 1.1 µM and inactive = higher.

Legend:
Assay in all cases: DTP human tumour cell line panel, 48 h
Malme-3M = tested on: Malme-3M
SW-620 = tested on: SW-620
NCI-H226 = tested on: NCI-H226
SK-MEL-2 = tested on: SK-MEL-2
SN12C = tested on: SN12C
RXF 393 = tested on: RXF 393
TK-10 = tested on: TK-10
SNB-75 = tested on: SNB-75
UACC-62 = tested on: UACC-62
HOP-18 = tested on: HOP-18
ACHN = tested on: ACHN
HL-60 = tested on: HL-60
M19-MEL = tested on: M19-MEL
SF-268 = tested on: SF-268
KM-20L2 = tested on: KM-20L2
UACC-257 = tested on: UACC-257
HCT-116 = tested on: HCT-116
SF-539 = tested on: SF-539
HT-29 = tested on: HT-29
SK-OV-3 = tested on: SK-OV-3
OVCAR-4 = tested on: OVCAR-4
NCI-H460 = tested on: NCI-H460
SK-MEL-5 = tested on: SK-MEL-5
OVCAR-3 = tested on: OVCAR-3
MOLT-4 = tested on: MOLT-4
OVCAR-8 = tested on: OVCAR-8
IGROV-1 = tested on: IGROV-1
SK-MEL-28 = tested on: SK-MEL-28
HCT-15 = tested on: HCT-15
RPMI-8226 = tested on: RPMI-8226
DLD-1 = tested on: DLD-1
M14 = tested on: M14
NCI-H23 = tested on: NCI-H23
UO-31 = tested on: UO-31
SNB-78 = tested on: SNB-78
LXFL 529 = tested on: LXFL 529
CCRF-CEM = tested on: CCRF-CEM
LOX IMVI = tested on: LOX IMVI
U-251 = tested on: U-251
COLO 205 = tested on: COLO 205
A549 = tested on: A549
KM12 = tested on: KM12
SNB-19 = tested on: SNB-19
HOP-62 = tested on: HOP-62
OVCAR-5 = tested on: OVCAR-5
XF498 = tested on: XF498
NCI-H522 = tested on: NCI-H522
HCC 2998 = tested on: HCC 2998
SR = tested on: SR
HOP-92 = tested on: HOP-92
CAKI-1 = tested on: CAKI-1
A498 = tested on: A498
K562 = tested on: K562
786-0 = tested on: 786-0
SF-295 = tested on: SF-295
EKVX = tested on: EKVX
DMS-273 = tested on: DMS-273
DMS-114 = tested on: DMS-114

**Q.** With `N#C/C(=C\c1ccc(O)c(O)c1)C(=O)NC1CCC(CC2CCC(NC(=O)/C(C#N)=C/c3ccc(O)c(O)c3)CC2)CC1` (stereo unspecified) as the compound, how does the GI50 (Malme-3M) read?
**A.** The GI50 was 3.65 µM (inactive).

**Q.** What about the GI50 (SW-620) of the same compound?
**A.** The GI50 was 0.465 µM (active).

**Q.** And the GI50 (NCI-H226)?
**A.** Its GI50 is 4.38 µM (inactive).

**Q.** What about the GI50 (SK-MEL-2) of the same compound?
**A.** The GI50 was 2 µM (inactive).

**Q.** And the GI50 (SN12C)?
**A.** Its GI50 is 2.33 µM (inactive).

**Q.** What about the GI50 (RXF 393) of the same compound?
**A.** Its GI50 is 2.29 µM (inactive).

**Q.** What about the GI50 (TK-10) of the same compound?
**A.** Its GI50 is 4.02 µM (inactive).

**Q.** And the GI50 (SNB-75)?
**A.** Its GI50 is 0.263 µM (active).

**Q.** What about the GI50 (UACC-62) of the same compound?
**A.** The GI50 was 1.59 µM (inactive).

**Q.** What about the GI50 (HOP-18) of the same compound?
**A.** Its GI50 is 2.38 µM (inactive).

**Q.** What about the GI50 (ACHN) of the same compound?
**A.** Its GI50 is 0.718 µM (active).

**Q.** What about the GI50 (HL-60) of the same compound?
**A.** Its GI50 is 0.902 µM (active).

**Q.** What about the GI50 (M19-MEL) of the same compound?
**A.** The GI50 was 0.443 µM (active).

**Q.** What about the GI50 (SF-268) of the same compound?
**A.** Its GI50 is 1.93 µM (inactive).

**Q.** And the GI50 (KM-20L2)?
**A.** Its GI50 is 1.78 µM (inactive).

**Q.** And the GI50 (UACC-257)?
**A.** The GI50 was 2.84 µM (inactive).

**Q.** And the GI50 (HCT-116)?
**A.** The GI50 was 0.233 µM (active).

**Q.** And the GI50 (SF-539)?
**A.** The GI50 was 0.536 µM (active).

**Q.** And the GI50 (HT-29)?
**A.** The GI50 was 1.32 µM (inactive).

**Q.** And the GI50 (SK-OV-3)?
**A.** Its GI50 is 3.82 µM (inactive).

**Q.** What about the GI50 (OVCAR-4) of the same compound?
**A.** The GI50 was 3.32 µM (inactive).

**Q.** And the GI50 (NCI-H460)?
**A.** Its GI50 is 0.283 µM (active).

**Q.** What about the GI50 (SK-MEL-5) of the same compound?
**A.** Its GI50 is 1.93 µM (inactive).

**Q.** And the GI50 (OVCAR-3)?
**A.** The GI50 was 1.37 µM (inactive).

**Q.** What about the GI50 (MOLT-4) of the same compound?
**A.** The GI50 was 0.743 µM (active).

**Q.** And the GI50 (OVCAR-8)?
**A.** Its GI50 is 0.459 µM (active).

**Q.** What about the GI50 (IGROV-1) of the same compound?
**A.** The GI50 was 1.71 µM (inactive).

**Q.** And the GI50 (SK-MEL-28)?
**A.** The GI50 was 3.22 µM (inactive).

**Q.** And the GI50 (HCT-15)?
**A.** Its GI50 is 461 nM.

**Q.** And the GI50 (RPMI-8226)?
**A.** Its GI50 is 0.693 µM (active).

**Q.** And the GI50 (DLD-1)?
**A.** The GI50 was 0.415 µM (active).

**Q.** And the GI50 (M14)?
**A.** The GI50 was 1.85 µM (inactive).

**Q.** And the GI50 (NCI-H23)?
**A.** Its GI50 is 1.3 µM (inactive).

**Q.** What about the GI50 (UO-31) of the same compound?
**A.** The GI50 was 1.77 µM (inactive).

**Q.** What about the GI50 (SNB-78) of the same compound?
**A.** Its GI50 is 1.59 µM (inactive).

**Q.** What about the GI50 (LXFL 529) of the same compound?
**A.** Its GI50 is 0.433 µM (active).

**Q.** And the GI50 (CCRF-CEM)?
**A.** The GI50 was 0.293 µM (active).

**Q.** What about the GI50 (LOX IMVI) of the same compound?
**A.** Its GI50 is 0.356 µM (active).

**Q.** What about the GI50 (U-251) of the same compound?
**A.** The GI50 was 0.973 µM (active).

**Q.** And the GI50 (COLO 205)?
**A.** The GI50 was 1.12 µM (inactive).

**Q.** And the GI50 (A549)?
**A.** Its GI50 is 0.466 µM (active).

**Q.** And the GI50 (KM12)?
**A.** The GI50 was 1.47 µM (inactive).

**Q.** And the GI50 (SNB-19)?
**A.** The GI50 was 3.52 µM (inactive).

**Q.** And the GI50 (HOP-62)?
**A.** The GI50 was 1.89 µM (inactive).

**Q.** And the GI50 (OVCAR-5)?
**A.** Its GI50 is 2.08 µM (inactive).

**Q.** What about the GI50 (XF498) of the same compound?
**A.** Its GI50 is 2.07 µM (inactive).

**Q.** What about the GI50 (NCI-H522) of the same compound?
**A.** The GI50 was 437 nM (active).

**Q.** And the GI50 (HCC 2998)?
**A.** The GI50 was 2.24 µM (inactive).

**Q.** What about the GI50 (SR) of the same compound?
**A.** The GI50 was 0.424 µM (active).

**Q.** What about the GI50 (HOP-92) of the same compound?
**A.** Its GI50 is 1.55 µM (inactive).

**Q.** What about the GI50 (CAKI-1) of the same compound?
**A.** The GI50 was 2.04 µM (inactive).

**Q.** What about the GI50 (A498) of the same compound?
**A.** The GI50 was 4.7 µM (inactive).

**Q.** What about the GI50 (K562) of the same compound?
**A.** Its GI50 is 0.564 µM (active).

**Q.** And the GI50 (786-0)?
**A.** Its GI50 is 1.27 µM (inactive).

**Q.** And the GI50 (SF-295)?
**A.** Its GI50 is 1.3 µM (inactive).

**Q.** What about the GI50 (EKVX) of the same compound?
**A.** Its GI50 is 3.48 µM (inactive).

**Q.** What about the GI50 (DMS-273) of the same compound?
**A.** The GI50 was 0.222 µM (active).

**Q.** What does the source list for `CCOC(=O)CC1COc2ccc3c(c21)OCO3` (stereo unspecified)?
**A.** GI50 (Malme-3M): > 100 µM (inactive); GI50 (SW-620): > 100 µM (inactive); GI50 (NCI-H226): > 100 µM (inactive); GI50 (SK-MEL-2): > 100 µM (inactive); GI50 (SN12C): > 100 µM (inactive); GI50 (TK-10): > 100 µM (inactive); GI50 (SNB-75): > 100 µM (inactive); GI50 (UACC-62): > 100 µM (inactive); GI50 (HOP-18): > 100 µM (inactive); GI50 (ACHN): > 100 µM (inactive); GI50 (DMS-114): > 100 µM (inactive); GI50 (HL-60): > 100 µM (inactive); GI50 (M19-MEL): > 100 µM (inactive); GI50 (KM-20L2): > 100 µM (inactive); GI50 (UACC-257): > 100 µM (inactive); GI50 (HCT-116): > 100 µM (inactive); GI50 (SF-539): > 100 µM (inactive); GI50 (HT-29): > 100 µM (inactive); GI50 (SK-OV-3): > 100 µM (inactive); GI50 (OVCAR-4): > 100 µM (inactive); GI50 (NCI-H460): > 100 µM (inactive); GI50 (SK-MEL-5): > 100 µM (inactive); GI50 (OVCAR-3): > 100 µM (inactive); GI50 (MOLT-4): > 100 µM (inactive); GI50 (OVCAR-8): > 100 µM (inactive); GI50 (IGROV-1): > 100 µM (inactive); GI50 (SK-MEL-28): > 100 µM (inactive); GI50 (HCT-15): > 100000 nM; GI50 (RPMI-8226): > 100 µM (inactive); GI50 (DLD-1): > 100 µM (inactive); GI50 (M14): > 100 µM (inactive); GI50 (NCI-H23): > 100 µM (inactive); GI50 (UO-31): > 100 µM (inactive); GI50 (SNB-78): > 100 µM (inactive); GI50 (LXFL 529): > 100 µM (inactive); GI50 (CCRF-CEM): > 100 µM (inactive); GI50 (LOX IMVI): > 100 µM (inactive); GI50 (U-251): > 100 µM (inactive); GI50 (COLO 205): > 100 µM (inactive); GI50 (A549): > 100 µM (inactive); GI50 (KM12): > 100 µM (inactive); GI50 (SNB-19): > 100 µM (inactive); GI50 (HOP-62): > 100 µM (inactive); GI50 (OVCAR-5): > 100 µM (inactive); GI50 (XF498): > 100 µM (inactive); GI50 (HCC 2998): > 100 µM (inactive); GI50 (SR): > 100 µM (inactive); GI50 (HOP-92): > 100 µM (inactive); GI50 (A498): > 100 µM (inactive); GI50 (K562): > 100 µM (inactive); GI50 (786-0): > 100 µM (inactive); GI50 (SF-295): > 100 µM (inactive); GI50 (EKVX): > 100 µM (inactive); GI50 (DMS-273): > 100 µM (inactive)
